Experimental findings from the METLIN SMRT retention time set (Domingo-Almenara et al. 2019) are described below.

This series in a line: gradient 5% acetonitrile 3 min, to 50% in 2 min, to 85% in 15 min, held 3 min, 100 µL/min. As to conditions: column: Zorbax Extend-C18 2.1 x 50 mm; eluents: water / acetonitrile, 0.1% formic acid. Put shortly:
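In both positive and negative ionization mode, a quadrupole time-of-flight mass spectrometer coupled to HPLC analyzed pure standards run in mixtures of ~100 molecules. The Zorbax Extend-C18 column (2.1 × 50 mm, 1.8 μm) was operated at 100 μL/min with water and acetonitrile, each containing 0.1% formic acid. The dead volume was 40 μL and the dwell volume 900 μL. Retention time came from adduct peaks that were computationally picked and individually inspected by hand.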
Consider `CCn1c(CCNC(=O)c2ccc(F)c(F)c2)nc2cccnc21`, for which the RP-LC retention time is 641 s.

Compound `COCCOCc1nc(C2CCCN2S(=O)(=O)c2ccccc2)no1` (stereo not given) returned an RP-LC retention time of 781 s. For `CCNC(=O)C1CCN(S(=O)(=O)c2c(C)[nH]c(C)c2C(=O)N2CCCCC2)CC1`, the RP-LC retention time was found to be 624 s. Compound `Cc1ccc(-c2cc3c4nnc(SCC(=O)NC5CCCCC5)n4ccn3n2)cc1C` registered an RP-LC retention time of 978 s. As to `Cc1cccc(N(C)C(=O)Cn2nc3nc(N4CCCC(C)C4)ccn3c2=O)c1` (stereo not given), the RP-LC retention time was 808 s. On to `CCC(=O)N(C1CCOCC1)C1CCN(S(=O)(=O)c2ccc(Cl)cc2)CC1`, for which the RP-LC retention time is 886 s.

Compound `Cc1ccc(CNS(=O)(=O)c2ccc3c(c2)C(=O)N(C)c2ncccc2O3)cc1C` displayed an RP-LC retention time of 986 s. `COc1cccc(-c2cc(C3CCN(C(=O)NC4CCCC4)CC3)[nH]n2)c1`: the RP-LC retention time was 790 s.

In turn, `Cc1ccc(-c2ccc(=O)n(CCc3nc(-c4ccccc4)no3)n2)cc1C` registered an RP-LC retention time of 1050 s. Under `COc1ccc(-c2cn3c(CC(=O)N(Cc4ccco4)C4CCCCC4)csc3n2)cc1OC` stands 890 s; under `Cc1cc(Br)ccc1NC(=O)C1CCN(c2cc(=O)n(C)c(=O)n2C)CC1`, 745 s; under `O=C(N[C@@H]1CN(c2ncccn2)C[C@H]1CO)C1(c2ccccc2)CC1`, 654 s. As for `COc1ccc(-c2nnc(-c3ccccc3)o2)cc1S(=O)(=O)N1CCSCC1`, the figure is 955 s; as for `O=C(Cn1c(=O)oc2ccccc21)N1CCN(S(=O)(=O)C2CC2)CC1`, 670 s.

`Cn1cccc1-c1cc2n(n1)CCC(=O)N2CCCC(=O)NCCCc1ccccc1` yielded an RP-LC retention time of 833 s. Under `COc1ccccc1C(=O)N1CCC(n2cnnc2-c2ccccc2)C1` (stereo not given) stands 643 s. In turn, `Cc1noc(C)c1CCC(=O)N1CCC2(CC1)CC(CCOCC1CC1)CCO2` (stereo not given) showed an RP-LC retention time of 831 s.

With `CN1C(=O)C(C)(C(=O)NCc2ccccc2Cl)Oc2cccnc21` (stereo not given), the RP-LC retention time stood at 795 s.

On to `CCCC(=O)N1CCN(c2nc(CN3CCOCC3)cs2)CC1`, for which the RP-LC retention time is 580 s. Under `CC(=O)N1CCC(C2CCN(C(=O)C3CC=CCC3)C2)CC1` (stereo not given) stands 691 s; under `COc1ccc(C(=O)N2CCC3(CC2)NC(=O)c2ccc(F)cc2N3C)cc1OC`, 698 s; under `CC1=C(c2ccc(F)cc2)S(=O)(=O)N=C1N1CCCN(C(=O)c2ccccc2F)CC1`, 817 s. As for `NC(=O)C1CCN(C(=O)CCc2nnc3c4cc(-c5ccc(Cl)cc5)nn4ccn23)CC1`, the figure is 671 s. As for `CCN1CCN(c2cc(C)c3cc(NC(=O)CSc4ccccc4)ccc3n2)CC1`, the RP-LC retention time was determined as 602 s. Under `COCCCn1c(=O)c2ccccc2n(Cc2nc(-c3cccc(OC)c3)no2)c1=O` stands 1040 s; under `O=C(NCc1ccc(-c2noc(Cc3ccccc3F)n2)s1)C1CC1`, 868 s; under `COc1ccc2c(c1)C=C(C(=O)NCCc1c[nH]c3ccc(OC)cc13)CO2`, 800 s. Regarding `CCCCCNC(=O)C1CCN(c2ccc(Sc3cc(C)ccc3C)nn2)CC1`, the RP-LC retention time was 930 s.

As for `CCn1c(=O)sc2cc(S(=O)(=O)N3CCC(C(=O)NCc4ccccc4Cl)CC3)ccc21`, the RP-LC retention time worked out at 905 s.

For `COCc1nc2cccnc2n1C1CCN(C(=O)Nc2cc(C)cc(C)c2)CC1`, the RP-LC retention time was determined as 747 s.

In turn, `Cc1ccc(S(=O)(=O)N2CCC(n3cnnc3C)CC2)cc1Cl` returned an RP-LC retention time of 736 s. For `CCCCC(=O)Nc1cnc(N2CCNCC2)c(C(=O)N2CCCC2)c1`, the RP-LC retention time was 595 s. As for `CCC(C)NC(=O)c1cc(=O)[nH]c2c(C)cccc12` (stereo not given), the figure is 661 s; as for `CC1CCN(c2ccc(N3CCN(S(=O)(=O)c4cc(F)ccc4F)CC3)nn2)CC1`, 606 s; as for `CCn1nccc1-c1cccc(-c2noc(-c3ccnc(Cl)c3)n2)c1`, 1160 s. In turn, `CC(C(=O)NCCc1c[nH]c2ccccc12)n1c2ccccc2c2cnn(C)c(=O)c21` (stereo not given) had an RP-LC retention time of 829 s. Consider `NS(=O)(=O)c1ccc(CCNC(=O)c2cnc3sccn3c2=O)cc1`, for which the RP-LC retention time was 568 s.

On to `Cn1cnc(S(=O)(=O)N2CCC(c3noc(-c4ccccc4)n3)C2)c1` (stereo not given), for which the RP-LC retention time amounted to 748 s. Under `CCC(=O)Nc1ccc2c(c1)CN(C(=O)c1ccccc1Cl)C(C(=O)N1CCCC1)C2` (stereo not given) stands 714 s; under `Cc1cc(S(=O)(=O)NCC2CCCO2)cc([N+](=O)[O-])c1C` (stereo not given), 778 s; under `CCCNC(=O)N1CCc2c(c(-c3nc(-c4ccccc4)no3)nn2C)C1`, 825 s.

`O=c1c2cc(-c3ccc(Cl)cc3)nn2ccn1Cc1nc(-c2cccc(F)c2)no1` displayed an RP-LC retention time of 1190 s.

`CCNC(=O)CC1=C2CCCCC2N(C)C1=O` (stereo not given) had an RP-LC retention time of 607 s. In turn, `Cn1c(CN2CCN(C(=O)c3ccco3)CC2)nc2cc(NC(=O)C3CCCCC3)ccc21` showed an RP-LC retention time of 664 s. Under `CCCn1c(=O)sc2cc(S(=O)(=O)N3CCC(C(=O)Nc4ccc(C)cn4)CC3)ccc21` stands 808 s; under `CCCS(=O)(=O)N1CC(N(C)Cc2cccnc2)C1`, 559 s.

For `CCOc1ccc2nc(C(=O)Nc3ccc(N4CCOCC4)cc3)cn2n1`, the RP-LC retention time came out at 767 s. Regarding `COc1ccccc1-c1nc(-c2ccc3c(c2)nnn3CCN(C)C)no1`, the RP-LC retention time worked out at 644 s.

For the compound `Cc1cc(C(=O)NCCCN2CCOCC2)c2cc(Br)ccc2n1`, the RP-LC retention time worked out at 583 s. Turning to `CNC(=O)NC(=O)COc1cc(=O)n2cccc(C)c2n1`, the RP-LC retention time stood at 579 s. In turn, `CCCn1ccc2sc(C)c(C(=O)NCCC(C)C)c2c1=O` came in with an RP-LC retention time of 901 s. Take `Cc1noc(-c2ccnc(-n3ncc(C(=O)NC4CCCCCC4)c3C)c2)n1`: the RP-LC retention time is 968 s.

Consider `CCn1cc(CCNC(=O)c2sccc2C)c2cccnc21`, for which the RP-LC retention time was 705 s.

The compound `Cc1cccc(-c2nc(Cn3nnc(-c4nc(-c5ccccc5Br)no4)c3C)c(C)o2)c1` showed an RP-LC retention time of 1310 s.

`OCCCc1nc2ccccc2n1Cc1ccccc1Cl` displayed an RP-LC retention time of 568 s. As to `CCN(CC)CCCNC(=O)c1c(-c2ccc(Br)s2)noc1C`, the RP-LC retention time came out at 652 s. `Cc1nnc(N2CCCC(C(=O)NCc3cccc(F)c3)C2)c2nn(-c3ccc(Cl)cc3)c(C)c12` (stereo not given) returned an RP-LC retention time of 757 s. `CC(C)(Oc1ccc(Cl)cc1)C(=O)NCCNc1cc(-n2cccn2)ncn1` displayed an RP-LC retention time of 814 s. In the case of `CC(C)c1nnc(-c2coc(S(=O)(=O)N3CCN(C4CCCCC4)CC3)c2)o1`, the RP-LC retention time worked out at 644 s. In turn, `COc1ccccc1C(=O)N1CCC2(CC1)NC(=O)c1cc(F)ccc1N2C` had an RP-LC retention time of 752 s.

On to `Cc1ccc(Cl)cc1S(=O)(=O)NCC(=O)N1CCOC(c2ccccc2)C1` (stereo not given), for which the RP-LC retention time was determined as 910 s.

For the compound `COc1c(C(=O)NC(C)(C)C)sc2cccc(F)c12`, the RP-LC retention time was 1110 s. On to `CCOC(=O)c1cccc(Nc2ncccc2S(N)(=O)=O)c1`, for which the RP-LC retention time worked out at 854 s. `COc1ccc(Cl)cc1NC(=O)c1cc(C)n2nc(-c3ccco3)cc2n1` gave an RP-LC retention time of 1300 s. As for `CCCC(=O)Nc1nnc(SCc2nnc(-c3ccc4c(c3)OCO4)o2)s1`, the figure is 794 s; as for `CCOc1ccc2nc(C(=O)NCc3cccc(Br)c3)cn2n1`, 944 s; as for `O=C(c1ccccc1)N1CCC(n2nc(-c3ccsc3)ccc2=O)CC1`, 780 s. The compound `O=C(NCCS(=O)(=O)N1CCN(c2ccc(F)cc2)CC1)c1cccc([N+](=O)[O-])c1` showed an RP-LC retention time of 834 s.

`CNC(=O)c1nc(C(C)(C)NC(=O)c2ccco2)nc2c1OCO2` yielded an RP-LC retention time of 623 s. Compound `Cc1ccc(CNC(=O)C2(C)Oc3cccnc3N(C(C)C)C2=O)cc1` (stereo not given) returned an RP-LC retention time of 982 s. Under `COc1cccc(Cn2ccc3ccn(CCN(C)C)c3c2=O)c1` stands 639 s; under `Cc1ccc(-n2c(N3CCCC(C(=O)NCc4ccc(F)cc4F)C3)nc3ccsc3c2=O)cc1` (stereo not given), 918 s. `O=C(Nc1cccn2ncnc12)c1ccccc1C(F)(F)F` displayed an RP-LC retention time of 765 s. Regarding `Cc1ccc(C)c(NC(=O)Cn2nc3c4sc(N(C)C)nc4ncn3c2=O)c1`, the RP-LC retention time stood at 694 s.

The compound `Cc1ccc2ncn(C3CCN(S(=O)(=O)c4cc(F)cc(F)c4)CC3)c(=O)c2c1` registered an RP-LC retention time of 932 s. `CCc1noc(NC(C)=O)c1-c1ccc(C)c(S(=O)(=O)Nc2cc(C)ccc2OC)c1`: the RP-LC retention time stood at 884 s. In the case of `COc1cccc(NC(=O)Cn2c(=O)c3cc(C4CC4)nn3c3ncccc32)c1`, the RP-LC retention time amounted to 763 s. As for `COCCN1C(=O)c2oc3ccc(F)cc3c(=O)c2C1c1ccc([N+](=O)[O-])cc1` (stereo not given), the figure is 803 s. As for `COc1ccc(NS(=O)(=O)c2c(C)nn(-c3ccc(-c4ccccc4)nn3)c2C)cc1OC`, the figure is 895 s; as for `CC(=O)Nc1ccc(NC(=O)c2cc3sccc3n2Cc2ccc(F)cc2)cc1`, 911 s.
